Our source for the TGI values is PubChem BioAssay (NCI).

Structures are written as SMILES.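 These data come from cells grown in 96-well plates and exposed to compound for 48 hours at five concentrations. TGI marks complete inhibition of growth.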 Bounds are passed on as bounds.

Some test systems named below: A498 renal; ACHN renal; HL-60(TB) leukemia; HOP-92 NSCLC; HT29 colon; IGROV1 ovarian; MALME-3M melanoma; MDA-MB-435; MDA-N; OVCAR-4 ovarian; OVCAR-8 ovarian; SK-MEL-28 melanoma; SK-OV-3 ovarian; SNB-75 CNS; TK-10 renal; UACC-257 melanoma; UACC-62 melanoma; NCI-H522 lung; SR leukemia.
Common to all, as to assay: inhibition of tumour cell growth, NCI panel, 48 h

For the compound `CN(C)Cc1cc(C(=O)/C=C/c2c(F)cccc2Cl)cc(CN(C)C)c1O`, the TGI in the test with A498 renal came out at 21 µM; in the test on ACHN renal it was 15.4 µM; with HL-60(TB) leukemia it was 8.49 µM; with HOP-92 NSCLC, 20.3 µM; with HT29 colon, 23.7 µM; in the test with IGROV1 ovarian, 19 µM. Besides, the TGI was found to be 25.7 µM in the test with MALME-3M melanoma; 38.2 µM with MDA-MB-435; 29.1 µM in the test with MDA-N; 31 µM in the test with OVCAR-4 ovarian; 41.2 µM in the test with OVCAR-8 ovarian; 31.9 µM in the test with SK-MEL-28 melanoma. Moreover, the TGI in the test with SK-OV-3 ovarian was 28.3 µM; in the test with SNB-75 CNS, 21.8 µM; in the test with TK-10 renal it was 15.7 µM; in the test on UACC-257 melanoma, 24.6 µM; in the test with UACC-62 melanoma, 26.1 µM.

For `CCCCCCCCCCOC1C(C(C)OCCCN(C)C)OC2OC3(CCCCC3)OC21` (configuration not stated), the TGI in the test with ACHN renal was 31.4 µM; in the test with HL-60(TB) leukemia, 20.7 µM; in the test with HOP-92 NSCLC, 16.3 µM; in the test with HT29 colon it was 11 µM; in the test with IGROV1 ovarian, 28.1 µM; with MALME-3M melanoma, 29.5 µM. Besides, the TGI with MDA-MB-435 turned out to be 30.3 µM; in the test with MDA-N, 21.8 µM; in the test with NCI-H522 lung, 34 µM; with OVCAR-4 ovarian, 27.5 µM; with OVCAR-8 ovarian it was 34.6 µM; with SK-MEL-28 melanoma, 25.5 µM. Also, the TGI in the test on SK-OV-3 ovarian came out at 32.7 µM; in the test on SNB-75 CNS, 20.1 µM; with TK-10 renal, 38.6 µM; in the test with UACC-257 melanoma, 35.5 µM; in the test on UACC-62 melanoma, 26.2 µM.

Turning to `Cc1ccc(C(=O)/C=C/N2CCN(c3cccc(C(F)(F)F)c3)CC2)cc1`, the TGI in the test with A498 renal was 33.3 µM; in the test with ACHN renal, 60.5 µM; in the test with HL-60(TB) leukemia, 60.2 µM; with HOP-92 NSCLC it was more than 100 µM; in the test with HT29 colon it was 35.8 µM; in the test on IGROV1 ovarian it was 31.4 µM. The TGI in the test with MALME-3M melanoma is 38.1 µM; in the test with MDA-MB-435, 32.4 µM; with NCI-H522 lung, 35.4 µM; with OVCAR-4 ovarian it was more than 100 µM; with OVCAR-8 ovarian, 38.9 µM; in the test with SK-MEL-28 melanoma, 38.4 µM. The TGI turned out to be 95.5 µM in the test with SK-OV-3 ovarian; 34.7 µM with SNB-75 CNS; 40.3 µM with SR leukemia; 56.8 µM in the test with TK-10 renal; 32.5 µM with UACC-257 melanoma; 34.8 µM in the test on UACC-62 melanoma.

For the compound `CCCCCCCCCCCCCCCCCCNC(=S)/N=C/c1c(O)cc(C)oc1=O`, the TGI was 65.4 µM in the test on ACHN renal; more than 100 µM with HL-60(TB) leukemia; more than 100 µM with HOP-92 NSCLC; 76.8 µM with HT29 colon; 55.8 µM in the test on IGROV1 ovarian; 55.6 µM in the test on MDA-MB-435. The TGI in the test on MDA-N was more than 100 µM; with OVCAR-4 ovarian, 80 µM; with OVCAR-8 ovarian, 63.4 µM; in the test on SK-MEL-28 melanoma it was more than 100 µM; in the test on SK-OV-3 ovarian, 87.4 µM; with SNB-75 CNS, 49.3 µM. Further, the TGI in the test on TK-10 renal is 35.9 µM; in the test with UACC-257 melanoma, 65.3 µM; in the test on UACC-62 melanoma, more than 100 µM.

For the compound `O=C(NN1C(=O)C(Cl)C1c1ccc([N+](=O)[O-])cc1)c1ccccc1O` (configuration not stated), the TGI in the test with HL-60(TB) leukemia, in the test with HOP-92 NSCLC, in the test with HT29 colon, in the test with IGROV1 ovarian, with MALME-3M melanoma and with NCI-H522 lung was more than 100 µM throughout. Moreover, the TGI in the test with OVCAR-4 ovarian, in the test on OVCAR-8 ovarian, in the test with SK-MEL-28 melanoma, in the test with SK-OV-3 ovarian, in the test on SNB-75 CNS and in the test with SR leukemia was more than 100 µM in each case. For the same compound, the TGI in the test with TK-10 renal, with UACC-257 melanoma and in the test on UACC-62 melanoma was more than 100 µM each time.

`CCN(CC)CCNC(=O)c1cc2cc(NC(=O)c3cc4cc(NC(=O)c5cc6cc([N+](=O)[O-])ccc6[nH]5)ccc4[nH]3)ccc2[nH]1`: the TGI in the test with A498 renal, in the test with ACHN renal, in the test on HOP-92 NSCLC, in the test with HT29 colon, with IGROV1 ovarian and in the test on MALME-3M melanoma was more than 100 µM each time. Besides, the TGI with MDA-MB-435, in the test on NCI-H522 lung, in the test with OVCAR-4 ovarian, in the test on OVCAR-8 ovarian, in the test on SK-MEL-28 melanoma and in the test with SK-OV-3 ovarian was more than 100 µM in each case. The TGI with SNB-75 CNS was more than 100 µM; in the test with SR leukemia, 14.4 µM; in the test with TK-10 renal it was more than 100 µM; with UACC-257 melanoma, more than 100 µM; in the test with UACC-62 melanoma it was more than 100 µM.

Regarding `CCN(CC)CCNc1ccc2nnn3c4ccc(OC(C)=O)cc4c(=O)c1c23`, the TGI was found to be 21 µM with A498 renal; 12.9 µM in the test with ACHN renal; 17.7 µM in the test on HOP-92 NSCLC; 11.4 µM with HT29 colon; 6.38 µM in the test on IGROV1 ovarian; 16.3 µM with MALME-3M melanoma. In addition, the TGI in the test on MDA-MB-435 amounted to 18 µM; with MDA-N, 17.8 µM; in the test with NCI-H522 lung, 5.92 µM; in the test on OVCAR-4 ovarian, 8.73 µM; with OVCAR-8 ovarian it was 16.7 µM; in the test on SK-MEL-28 melanoma, 26.3 µM. Also, the TGI turned out to be 21 µM with SK-OV-3 ovarian, 16.7 µM in the test with TK-10 renal, 24.9 µM in the test with UACC-257 melanoma and 25.3 µM in the test on UACC-62 melanoma.

Turning to `COC(=O)Nc1nc2ccc(NS(=O)(=O)c3ccc(F)cc3)cc2[nH]1`, the TGI in the test with A498 renal was more than 100 µM; in the test with ACHN renal, more than 100 µM; with HL-60(TB) leukemia it was 8.45 µM; with HOP-92 NSCLC it was more than 100 µM; with HT29 colon, 37.4 µM; with IGROV1 ovarian, 9.93 µM. In addition, the TGI with MALME-3M melanoma is more than 100 µM; with MDA-MB-435 it was 11.2 µM; with MDA-N it was 7.45 µM; with NCI-H522 lung, 7.68 µM; in the test with OVCAR-4 ovarian, more than 100 µM; in the test with OVCAR-8 ovarian, more than 100 µM. In addition, the TGI in the test on SK-MEL-28 melanoma was more than 100 µM; in the test with SK-OV-3 ovarian, more than 100 µM; in the test on SNB-75 CNS, 70.1 µM; in the test with TK-10 renal it was 87 µM; in the test with UACC-62 melanoma, more than 100 µM.
